Results reported in ChEMBL document CHEMBL5338816, “Discovery of Dimethyl Shikonin Oxime 5a, a Potent, Selective Bombesin Receptor Subtype-3 Agonist for the Treatment of Type 2 Diabetes Mellitus” (J Med Chem, 2023).
One block for each compound: values may come before it. The source made the active and inactive calls. The rule behind the calls is not given here.

What was measured:
[1] = molecular target: T1, Bombesin receptor subtype-3 (Homo sapiens, UniProt P32247); experiment: Agonist activity at human BB3 stably overexpressed in human NCI-H1299 cells assessed as increase in IP-1 accumulation incubated for 60 mins by HTRF assay; assay type: functional, cell-based
T1 sequence (P32247 whole entry): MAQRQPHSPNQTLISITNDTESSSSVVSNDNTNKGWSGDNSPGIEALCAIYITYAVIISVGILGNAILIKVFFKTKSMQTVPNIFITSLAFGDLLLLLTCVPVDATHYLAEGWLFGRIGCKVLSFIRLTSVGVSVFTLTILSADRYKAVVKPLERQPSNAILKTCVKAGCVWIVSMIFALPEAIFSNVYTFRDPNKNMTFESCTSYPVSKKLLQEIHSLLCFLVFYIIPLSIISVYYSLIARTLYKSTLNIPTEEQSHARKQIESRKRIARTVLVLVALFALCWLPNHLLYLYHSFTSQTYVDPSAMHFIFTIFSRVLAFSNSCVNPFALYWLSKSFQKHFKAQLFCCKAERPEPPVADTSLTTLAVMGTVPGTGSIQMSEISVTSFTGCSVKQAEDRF

[2] = test system: Mus musculus; experiment: Antidiabetic activity in five hrs fasted BB3 knockout C57BL/6 mouse assessed as reduction in blood glucose level at 30 mg/kg,po pretreated with compound for 30 mins and followed by […] and measured upto 120 mins by OGTT; assay type: functional, organism-based; conditions: time 150.0 min
[3] = molecular target: T1, Bombesin receptor subtype-3; experiment: Agonist activity at human BB3 transiently expressed in human HEK293T cells assessed as increase in IP-1 accumulation incubated for 60 mins by HTRF assay
[4] = molecular target: T2, Bombesin receptor subtype-3 (Mus musculus, UniProt O54798); experiment: Agonist activity at endogenous mouse BB3 in mouse B16 cells assessed as increase in IP-1 accumulation incubated for 60 mins by HTRF assay; assay type: functional, cell-based
T2 sequence (O54798 whole entry): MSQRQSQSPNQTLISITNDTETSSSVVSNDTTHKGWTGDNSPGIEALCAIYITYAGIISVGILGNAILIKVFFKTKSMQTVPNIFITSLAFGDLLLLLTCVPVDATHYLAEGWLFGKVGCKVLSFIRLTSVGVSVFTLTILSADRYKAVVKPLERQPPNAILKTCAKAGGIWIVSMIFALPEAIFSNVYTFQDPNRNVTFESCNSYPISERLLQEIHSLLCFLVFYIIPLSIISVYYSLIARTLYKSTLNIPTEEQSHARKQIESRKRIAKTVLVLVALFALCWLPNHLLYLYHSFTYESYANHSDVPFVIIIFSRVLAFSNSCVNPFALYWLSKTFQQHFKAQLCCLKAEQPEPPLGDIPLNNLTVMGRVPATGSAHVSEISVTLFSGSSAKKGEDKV

[5] = molecular target: T2, Bombesin receptor subtype-3; experiment: Agonist activity at mouse BB3 stably overexpressed in human HEK cells assessed as increase in intracellular calcium response and measured for 3 mins by FLIPR calcium 6 assay; assay type: functional, cell-based
[6] = Drug concentration in […] mouse cerebrospinal fluid at 50 mg/kg,po and measured upto 480 mins by LC-MS/MS analysis; assay type: ADME, organism-based; conditions: read-out: Ct
[7] = Dissociation constant, pKa of the compound; assay type: physicochemical
[8] = test system: Mus musculus; experiment: Antidiabetic activity in fourteen hour fasted type 2 diabetic db/db mouse assessed as reduction of blood glucose excursion at 10 mg/kg,po for 2 weeks followed by […] and measured upto 120 mins by OGTT; assay type: functional, organism-based
[9] = molecular target: T1, Bombesin receptor subtype-3; experiment: Agonist activity at human BB3 stably overexpressed in human NCI-H1299 cells assessed as increase in intracellular calcium response and measured for 3 mins by FLIPR calcium 6 assay; assay type: functional, cell-based
[10] = test system: Mus musculus; experiment: Antidiabetic activity in fourteen hour fasted type 2 diabetic db/db mouse assessed as decrease in fasting blood glucose level at 10 mg/kg,po for 4 weeks by Glucose analyzer; assay type: functional, organism-based
[11] = test system: Mus musculus; experiment: Antidiabetic activity in five hrs fasted wild type C57BL/6 mouse assessed as reduction in blood glucose level at 3 to 30 mg/kg,po pretreated with compound for 30 mins and followed by […] and measured upto 120 mins by OGTT; assay type: functional, organism-based; conditions: dose upper 30.0 mg/kg, time 150.0 min
[12] = test system: Mus musculus; experiment: Antidiabetic activity in fourteen hour fasted type 2 diabetic db/db mouse assessed as increase in PPRE expression in white adipose tissue at 10 mg/kg, po for 4 weeks by Western blot analysis; assay type: functional, organism-based
[13] = molecular target: T3, Neuromedin-B receptor (Homo sapiens, UniProt P28336); experiment: Agonist activity at human BB1 in human HEK293T cells assessed as increase in intracellular calcium response at 10 uM and measured for 3 mins by FLIPR calcium 6 assay; assay type: functional, cell-based
Target sequence in this assay (P28336 whole entry, looked up): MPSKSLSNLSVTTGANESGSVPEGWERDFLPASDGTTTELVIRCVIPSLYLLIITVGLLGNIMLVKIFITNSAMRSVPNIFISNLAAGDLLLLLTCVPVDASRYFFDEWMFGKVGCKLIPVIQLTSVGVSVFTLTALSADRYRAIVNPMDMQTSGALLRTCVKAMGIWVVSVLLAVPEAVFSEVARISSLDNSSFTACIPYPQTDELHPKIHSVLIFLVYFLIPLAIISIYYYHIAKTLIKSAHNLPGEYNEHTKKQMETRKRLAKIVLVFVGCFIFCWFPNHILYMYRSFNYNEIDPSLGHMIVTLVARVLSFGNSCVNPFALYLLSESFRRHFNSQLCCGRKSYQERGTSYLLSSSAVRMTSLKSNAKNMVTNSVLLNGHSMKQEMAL

[14] = molecular target: T4, Bombesin receptor subtype-3 (Rattus norvegicus, UniProt Q8K418); experiment: Agonist activity at rat BB3 transiently expressed in human HEK293T cells assessed as increase in IP-1 accumulation incubated for 60 mins by HTRF assay; assay type: functional, cell-based
T4 sequence (Q8K418 whole entry): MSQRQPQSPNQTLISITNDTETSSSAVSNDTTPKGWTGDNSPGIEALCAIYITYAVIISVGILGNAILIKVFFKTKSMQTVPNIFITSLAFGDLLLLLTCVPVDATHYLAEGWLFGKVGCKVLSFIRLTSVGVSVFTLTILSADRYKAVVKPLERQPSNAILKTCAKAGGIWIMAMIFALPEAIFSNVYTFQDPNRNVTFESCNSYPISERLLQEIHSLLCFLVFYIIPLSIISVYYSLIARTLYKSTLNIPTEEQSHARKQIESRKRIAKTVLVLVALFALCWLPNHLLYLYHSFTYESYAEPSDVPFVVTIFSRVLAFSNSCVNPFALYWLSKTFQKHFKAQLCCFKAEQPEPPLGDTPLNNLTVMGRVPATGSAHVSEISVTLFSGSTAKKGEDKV

[15] = molecular target: T2, Bombesin receptor subtype-3; experiment: Agonist activity at mouse BB3 stably overexpressed in human HEK cells assessed as increase in IP-1 accumulation incubated for 60 mins by HTRF assay; assay type: functional, cell-based
[16] = test system: Mus musculus; experiment: Antidiabetic activity in fourteen hour fasted type 2 diabetic db/db mouse assessed as decrease in ALT level at 10 mg/kg,po for 4 weeks by BS-360S analyzer; assay type: functional, organism-based
[17] = test system: Mus musculus; experiment: Antidiabetic activity in fourteen hour fasted type 2 diabetic db/db mouse assessed as decrease in HOMA-IR level at 10 mg/kg,po for 4 weeks; assay type: functional, organism-based
[18] = test system: HEK293T; experiment: Agonist activity at human BB3 in human HEK293T cells assessed as increase in intracellular calcium response at 10 uM and measured for 3 mins by FLIPR calcium 6 assay; assay type: cell-based
[19] = test system: Mus musculus; experiment: Antidiabetic activity in fourteen hour fasted type 2 diabetic db/db mouse assessed as decrease in gamma-GT level at 10 mg/kg,po for 4 weeks by BS-360S analyzer; assay type: functional, organism-based
[20] = test system: Mus musculus; experiment: Antidiabetic activity in fourteen hour fasted type 2 diabetic db/db mouse assessed as decrease in glycosylated serum protein at 10 mg/kg,po for 4 weeks; assay type: functional, organism-based
[21] = molecular target: T3, Neuromedin-B receptor; experiment: Agonist activity at human BB1 in human HEK293T cells assessed as increase in intracellular calcium response and measured for 3 mins by FLIPR calcium 6 assay; assay type: functional, cell-based
Target sequence in this assay (P28336 whole entry): as the sequence (P28336 whole entry, looked up) above

[22] = Agonist activity at human BB3 in human HEK293T cells assessed as increase in intracellular calcium response and measured for 3 mins by FLIPR calcium 6 assay; assay type: cell-based; conditions: HEK-293T, 0.05 h

SMILES: C=CC(C)(C)C(OC(=O)c1cccnc1)c1cc(OC)c2c(c1OC)/C(=N/O)C=C/C2=N\O (centres undefined)
- EC50 [1]: 15.7 nM

SMILES: COc1cc(C(CC=C(C)C)OCCC(C)C)c(OC)c2c1/C(=N/OC(=O)c1ccccc1)C=C/C2=N\OC(=O)c1ccccc1 (centres undefined)
- EC50 [1]: > 10000 nM

SMILES: C=CC(C)(C)C(OC(=O)c1ccccn1)c1cc(OC)c2c(c1OC)/C(=N/O)C=C/C2=N\O (centres undefined)
- EC50 [1]: 14.7 nM

SMILES: C=CC(C)(C)C(OC(=O)c1ccc(C=O)cc1)c1cc(OC)c2c(c1OC)/C(=N/O)C=C/C2=N\O (centres undefined)
- EC50 [1]: 311 nM

SMILES: CCCC[C@H](NC(=O)[C@H](Cc1ccccc1)NC(=O)[C@H](Cc1c[nH]cn1)NC(=O)CNC(=O)[C@@H](NC(=O)[C@H](C)NC(=O)[C@H](Cc1c[nH]c2ccccc12)NC(=O)[C@H](CCC(N)=O)NC(=O)[C@H](N)Cc1ccccc1)C(C)C)C(N)=O
- EC50 [21]: 0.155 nM
- EC50 [22]: 0.405 nM

SMILES: C=CC(C)(C)C(OC(=O)c1ccccc1)c1cc(OC)c2c(c1OC)/C(=N/O)C=C/C2=N\O (centres undefined)
- EC50 [1]: 4.79 nM

SMILES: C=CC(C)(C)C(OC(=O)c1cncc(F)c1)c1cc(OC)c2c(c1OC)/C(=N/O)C=C/C2=N\O (centres undefined)
- EC50 [1]: 60 nM

SMILES: O[C@@](Cc1nc(CC2(C(F)(F)F)CC2)c[nH]1)(c1ccc(-n2cccn2)cc1)C(F)(F)F
- EC50 [4]: 13.5 nM
- EC50 [5]: 2.99 nM
- EC50 [9]: 0.293 nM
- EC50 [15]: 0.421 nM
- EC50 [1]: 0.211 nM

SMILES: C=CC(C)(C)C(OC(=O)c1ccncc1)c1cc(OC)c2c(c1OC)/C(=N/O)C=C/C2=N\O (centres undefined)
- EC50 [1]: 277 nM

SMILES: C=CC(C)(C)C(OC(=O)c1cccnc1Br)c1cc(OC)c2c(c1OC)/C(=N/O)C=C/C2=N\O (centres undefined)
- EC50 [1]: 101 nM

Further lines, with some results ahead:

- EC50 [1]: 776 nM
SMILES: C=CC(C)(C)C(OCCCCCO)c1cc(OC)c2c(c1OC)/C(=N/O)C=C/C2=N\O (centres undefined)

- EC50 [3]: 149 nM
- EC50 [4]: 0.44 nM
- EC50 [5]: 67 nM
- concentration at 8 h [6]: < 0.05 ng/mL
- pKa [7]: > 10.2
- EC50 [9]: 10.9 nM
- Activity [13]: inactive
- EC50 [14]: 6.11 nM
- EC50 [15]: 54.7 nM
- EC50 [1]: 3.78 nM
SMILES: C=CC(C)(C)C(OC(=O)c1ccco1)c1cc(OC)c2c(c1OC)/C(=N/O)C=C/C2=N\O (centres undefined)
- Activity [2]: inactive
- Activity [8]: Active
- Activity [10]: Active
- Activity [11]: Dose-Dependent Effect
- Activity [12]: Active
- Activity [16]: Active
- Activity [17]: Active
- Activity [18]: inactive
- Activity [19]: Active
- Activity [20]: Active

- EC50 [1]: 520 nM
SMILES: COc1cc(C(CC=C(C)C)OCCC(C)C)c(OC)c2c1/C(=N/O)C=C/C2=N\O (centres undefined)

- EC50 [1]: > 1000 nM
SMILES: C=CC(C)(C)C(OC(C)=O)c1cc(OC)c2c(c1OC)/C(=N/O)C=C/C2=N\O (centres undefined)

- EC50 [5]: 780 nM
- EC50 [9]: 2380 nM
- EC50 [15]: 624 nM
- EC50 [1]: 3400 nM
SMILES: COc1cc(C(O)CC=C(C)C)c(OC)c2c1/C(=N/O)C=C/C2=N\O (centres undefined)

- EC50 [1]: 81.7 nM
SMILES: C=CC(C)(C)C(OC(=O)c1ccc(C)cc1)c1cc(OC)c2c(c1OC)/C(=N/O)C=C/C2=N\O (centres undefined)

- EC50 [1]: 52.5 nM
SMILES: C=CC(C)(C)C(OC(=O)CC(C)C)c1cc(OC)c2c(c1OC)/C(=N/O)C=C/C2=N\O (centres undefined)

- EC50 [1]: > 10000 nM
SMILES: C=CC(C)(C)C(OCCCO)c1cc(OC)c2c(c1OC)/C(=N/O)C=C/C2=N\O (centres undefined)

- EC50 [1]: > 10000 nM
SMILES: C=CC(C)(C)C(O)c1cc(OC)c2c(c1OC)/C(=N/O)C=C/C2=N\O (centres undefined)

- EC50 [1]: 135 nM
SMILES: C=CC(C)(C)C(OC(=O)C1CCCO1)c1cc(OC)c2c(c1OC)/C(=N/O)C=C/C2=N\O (centres undefined)

- EC50 [1]: 226 nM
SMILES: C=CC(C)(C)C(OCCCCO)c1cc(OC)c2c(c1OC)/C(=N/O)C=C/C2=N\O (centres undefined)

- EC50 [1]: 822 nM
SMILES: COc1cc(C(CC=C(C)C)OC(=O)CC(C)C)c(OC)c2c1/C(=N/O)C=C/C2=N\O (centres undefined)
